According to publication PMC11249646, “Small-Molecule Disruptors of the Interaction between Calcium- and Integrin-Binding Protein 1 and Integrin αIIbβ3 as Novel Antiplatelet Agents” (ACS Pharmacology & Translational Science, 2024):
Read-outs that look alike come from different tables or passages of the source.

How the values were obtained:
Type in all cases: binding
[1] = biological target: T1, GST-CIB1 : F-scrambled peptide (Homo sapiens, UniProt Q99828); experiment: FP scrambled-peptide counter screen, 1536-well format; details: scrambled-peptide counterscreen; for COUNTERSCREEN Confirm?: YES/NO call; for COUNTERSCREEN Curve Class: qHTS curve class; for IC50: read-out: COUNTERSCREEN IC50
T1 construct: made in house; host or cells: BL-21 plus RIL cells (E. coli)
T1 sequence (Q99828 1-191): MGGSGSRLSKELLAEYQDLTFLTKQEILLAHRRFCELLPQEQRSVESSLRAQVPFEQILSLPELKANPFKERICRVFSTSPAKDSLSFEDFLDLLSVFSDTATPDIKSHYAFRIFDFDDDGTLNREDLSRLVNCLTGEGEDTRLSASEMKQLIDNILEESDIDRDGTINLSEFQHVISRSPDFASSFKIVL

[2] = biological target: T1, GST-CIB1 : F-scrambled peptide; experiment: FP scrambled-peptide counter screen, 384-well format; details: F-scrambled peptide; for 384-well COUNTERSCREEN Confirm?: *: Curve in opposite direction; for IC50: read-out: 384-well COUNTERSCREEN IC50
[3] = biological target: T2, CIB1 and αIIb interaction (CIB1-GST : F-αIIb peptide) (Homo sapiens, UniProt Q99828); experiment: FP assay, 1536-well qHTS format (primary and confirmatory screen); details: for CONFIRMATORY SCREEN Confirm?: YES/NO call; for CONFIRMATORY SCREEN Curve Class: qHTS curve class; for CONFIRMATORY SCREEN Curve Class / Curve Class: negative sign = inhibitory curve; for CONFIRMATORY SCREEN Efficacy (%) / Efficacy (%): negative = inhibition
T2 construct: made in house; host or cells: BL-21 plus RIL cells (E. coli)
T2 sequence (Q99828 1-191): T1 sequence (Q99828 1-191)

[4] = biological target: T3, CIB1 and αIIb interaction (GST-CIB1 : F-αIIb peptide) (Homo sapiens, UniProt Q99828); experiment: FP assay, 384-well format (screen); set-up: 384-well SCREEN Efficacy (%): concentration or dose not given beside the values; details: for 384-well SCREEN Efficacy (%) / 384-well SCREEN Confirm? / IC50: F-αIIb peptide; for 384-well SCREEN Confirm?: YES/NO; for IC50: read-out: 384-well SCREEN IC50
T3 construct: made in house; host or cells: BL-21 plus RIL cells (E. coli)
T3 sequence (Q99828 1-191): T1 sequence (Q99828 1-191)

[5] = confirmatory screen, read-out: CONFIRMATORY SCREEN IC50
[6] = qHTS primary screen hits, Table S2
[7] = qHTS primary screen hits, Table S2, read-out: IC50
[8] = qHTS FP screen hits, Table S2, read-out: IC50
[9] = qHTS primary screen hits, Table S2, several classes where COUNT > 1

SMILES: O=Cc1c(-c2ccccc2)no[n+]1[O-] [NCGC00168371-01]
- COUNTERSCREEN Efficacy (%) [1]: -14%
- COUNTERSCREEN Confirm? [1]: YES
- COUNTERSCREEN Curve Class [1]: 4
- 384-well COUNTERSCREEN Efficacy (%) [2]: 51%
- 384-well COUNTERSCREEN Confirm? [2]: Inconclusive
- IC50 [2]: 17.7 µM
- CONFIRMATORY SCREEN Confirm? ([3]; confirmatory screen): YES
- CONFIRMATORY SCREEN Curve Class ([3]; confirmatory screen): -1.2
- CONFIRMATORY SCREEN Efficacy (%) ([3]; confirmatory screen): -69%
- IC50 [3, 5]: 22.4 µM
- Efficacy (%) [3, 6]: -73%
- Curve Class [3, 6]: -2.2
- IC50 [3, 7]: 50.1 µM
- 384-well SCREEN Efficacy (%) [4]: 73%
- 384-well SCREEN Confirm? [4]: YES
- IC50 [4]: 14.1 µM
- Confirm and Selective? ([4]; selective toward αIIb: negative curve class and/or IC50 ratio of >3-fold and/or >2-fold efficacy vs scrambled peptide): Inconclusive

SMILES: CCC(=O)NC(c1cccs1)c1cc([N+](=O)[O-])c2cccnc2c1O (centres unmarked) [NCGC00182956-10]
- COUNTERSCREEN Efficacy (%) [1]: -17%
- COUNTERSCREEN Confirm? [1]: YES
- COUNTERSCREEN Curve Class [1]: 4
- 384-well COUNTERSCREEN Efficacy (%) [2]: 47%
- IC50 [2]: 17.7 µM
- CONFIRMATORY SCREEN Confirm? ([3]; confirmatory screen): YES
- CONFIRMATORY SCREEN Curve Class ([3]; confirmatory screen): -3
- CONFIRMATORY SCREEN Efficacy (%) ([3]; confirmatory screen): -53%
- IC50 [3, 5]: 50.1 µM
- Efficacy (%) ([3]; qHTS FP screen hits, Table S2): -51%
- IC50 [3, 8]: 46.6 µM
- 384-well SCREEN Efficacy (%) [4]: 23%
- IC50 [4]: > 120 µM

SMILES: C=CCNc1oc(-c2ccc(-c3ccccc3)cc2)nc1C#N.O=C(O)C(F)(F)F [NCGC00183413-01]
- COUNTERSCREEN Efficacy (%) [1]: -17%
- COUNTERSCREEN Confirm? [1]: YES
- COUNTERSCREEN Curve Class [1]: 4
- 384-well COUNTERSCREEN Efficacy (%) [2]: 58%
- IC50 [2]: 7.1 µM
- CONFIRMATORY SCREEN Confirm? ([3]; confirmatory screen): YES
- CONFIRMATORY SCREEN Curve Class ([3]; confirmatory screen): -1.2
- CONFIRMATORY SCREEN Efficacy (%) ([3]; confirmatory screen): -66%
- IC50 [3, 5]: 17.8 µM
- Efficacy (%) [3, 6]: -28%
- Curve Class [3, 9]: -1.4
- IC50 [3, 7]: 10 µM
- 384-well SCREEN Efficacy (%) [4]: 74%
- 384-well SCREEN Confirm? [4]: YES
- IC50 [4]: 7.1 µM

SMILES: CCc1ccc(/C=C2/SC(=S)NC2=O)cc1 [NCGC00185994-01]
- COUNTERSCREEN Efficacy (%) [1]: 0%
- COUNTERSCREEN Confirm? [1]: YES
- COUNTERSCREEN Curve Class [1]: 4
- 384-well COUNTERSCREEN Efficacy (%) [2]: 68%
- 384-well COUNTERSCREEN Confirm? [2]: YES
- IC50 [2]: > 120 µM
- CONFIRMATORY SCREEN Confirm? ([3]; confirmatory screen): YES
- CONFIRMATORY SCREEN Curve Class ([3]; confirmatory screen): -1.1
- CONFIRMATORY SCREEN Efficacy (%) ([3]; confirmatory screen): -93%
- IC50 [3, 5]: 8.9 µM
- Efficacy (%) ([3]; qHTS FP screen hits, Table S2): -43%
- IC50 [3, 8]: 8.2 µM
- 384-well SCREEN Efficacy (%) [4]: 44%
- 384-well SCREEN Confirm? [4]: YES
- IC50 [4]: 17.8 µM

SMILES: COC(=O)[C@]12CCC(C)(C)C[C@H]1[C@H]1C(=O)C=C3[C@@]4(C)C=C(C#N)C(=O)C(C)(C)[C@@H]4CC[C@@]3(C)[C@]1(C)CC2 [NCGC00186460-01]
- COUNTERSCREEN Efficacy (%) [1]: -36%
- COUNTERSCREEN Confirm? [1]: YES
- COUNTERSCREEN Curve Class [1]: -1.2
- IC50 [1]: 14.1 µM
- 384-well COUNTERSCREEN Efficacy (%) [2]: 29%
- 384-well COUNTERSCREEN Confirm? [2]: YES
- IC50 [2]: > 120 µM
- CONFIRMATORY SCREEN Confirm? ([3]; confirmatory screen): YES
- CONFIRMATORY SCREEN Curve Class ([3]; confirmatory screen): -1.2
- CONFIRMATORY SCREEN Efficacy (%) ([3]; confirmatory screen): -71%
- IC50 [3, 5]: 7.1 µM
- Efficacy (%) ([3]; qHTS FP screen hits, Table S2): -24%
- IC50 [3, 8]: 10.8 µM
- 384-well SCREEN Efficacy (%) [4]: 77%
- 384-well SCREEN Confirm? [4]: YES
- IC50 [4]: 3.5 µM

SMILES: Cc1ccc(S(=O)(=O)Nc2nn3c(=O)c4ccccc4nc3s2)cc1C.O=C(O)C(F)(F)F [NCGC00187578-01]
- COUNTERSCREEN Efficacy (%) [1]: 39%
- COUNTERSCREEN Confirm? [1]: YES
- COUNTERSCREEN Curve Class [1]: 4
- 384-well COUNTERSCREEN Efficacy (%) [2]: 12%
- IC50 [2]: > 120 µM
- CONFIRMATORY SCREEN Confirm? ([3]; confirmatory screen): YES
- CONFIRMATORY SCREEN Curve Class ([3]; confirmatory screen): -2.2
- CONFIRMATORY SCREEN Efficacy (%) ([3]; confirmatory screen): -46%
- IC50 [3, 5]: 11.2 µM
- Efficacy (%) [3, 6]: -22%
- Curve Class [3, 9]: -1.4
- IC50 [3, 7]: 14.1 µM
- 384-well SCREEN Efficacy (%) [4]: 27%
- IC50 [4]: > 120 µM

SMILES: O=C(O)C(F)(F)F.O=c1c2ccccc2nc2sc(NS(=O)(=O)c3ccc4c(c3)CCC4)nn12 [NCGC00187579-01]
- COUNTERSCREEN Efficacy (%) [1]: 62%
- COUNTERSCREEN Confirm? [1]: YES
- IC50 [1]: 35.5 µM
- 384-well COUNTERSCREEN Efficacy (%) [2]: 28%
- 384-well COUNTERSCREEN Confirm? [2]: YES
- IC50 [2]: > 120 µM
- CONFIRMATORY SCREEN Confirm? ([3]; confirmatory screen): YES
- CONFIRMATORY SCREEN Curve Class ([3]; confirmatory screen): -1.2
- CONFIRMATORY SCREEN Efficacy (%) ([3]; confirmatory screen): -35%
- IC50 [3, 5]: 6.3 µM
- Efficacy (%) [3, 6]: -32%
- Curve Class [3, 6]: -1.4
- IC50 [3, 7]: 2.8 µM
- 384-well SCREEN Efficacy (%) [4]: 43%
- 384-well SCREEN Confirm? [4]: YES
- IC50 [4]: 44.7 µM

SMILES: O=C(O)C(F)(F)F.O=c1c2ccccc2nc2sc(Nc3cccc(N4CCN5CCCCC5C4)c3)nn12 (centres unmarked) [NCGC00189229-01]
- COUNTERSCREEN Efficacy (%) [1]: -28%
- COUNTERSCREEN Confirm? [1]: YES
- COUNTERSCREEN Curve Class [1]: -2.4
- IC50 [1]: 56.2 µM
- 384-well COUNTERSCREEN Efficacy (%) [2]: 42%
- IC50 [2]: 17.8 µM
- CONFIRMATORY SCREEN Confirm? ([3]; confirmatory screen): YES
- CONFIRMATORY SCREEN Curve Class ([3]; confirmatory screen): -1.2
- CONFIRMATORY SCREEN Efficacy (%) ([3]; confirmatory screen): -50%
- IC50 [3, 5]: 7.9 µM
- Efficacy (%) ([3]; qHTS FP screen hits, Table S2): -20%
- IC50 [3, 8]: 2.5 µM
- 384-well SCREEN Efficacy (%) [4]: 42%
- 384-well SCREEN Confirm? [4]: YES
- IC50 [4]: 120 µM

SMILES: CSC(Cc1ccc(Cl)cc1)C(=O)Nc1ccc(Cl)cc1C(=O)O.O=C(O)C(F)(F)F (centres unmarked) [NCGC00189231-01]
- COUNTERSCREEN Efficacy (%) [1]: 0%
- COUNTERSCREEN Confirm? [1]: YES
- COUNTERSCREEN Curve Class [1]: 4
- 384-well COUNTERSCREEN Efficacy (%) [2]: 29%
- 384-well COUNTERSCREEN Confirm? [2]: YES
- IC50 [2]: > 120 µM
- CONFIRMATORY SCREEN Confirm? ([3]; confirmatory screen): YES
- CONFIRMATORY SCREEN Curve Class ([3]; confirmatory screen): -2.4
- CONFIRMATORY SCREEN Efficacy (%) ([3]; confirmatory screen): -50%
- IC50 [3, 5]: 44.7 µM
- Efficacy (%) [3, 6]: -23%
- Curve Class [3, 9]: -2.4
- IC50 [3, 7]: 22.4 µM
- 384-well SCREEN Efficacy (%) [4]: 31%
- 384-well SCREEN Confirm? [4]: YES
- IC50 [4]: 120 µM

SMILES: O=C(O)C(F)(F)F.OCc1ccc(-c2ccc3ncnc(NCc4cccs4)c3c2)o1 [NCGC00189276-01]
- COUNTERSCREEN Efficacy (%) [1]: 0%
- COUNTERSCREEN Confirm? [1]: YES
- COUNTERSCREEN Curve Class [1]: 4
- 384-well COUNTERSCREEN Efficacy (%) [2]: 34%
- 384-well COUNTERSCREEN Confirm? [2]: YES
- IC50 [2]: > 120 µM
- CONFIRMATORY SCREEN Confirm? ([3]; confirmatory screen): YES
- CONFIRMATORY SCREEN Curve Class ([3]; confirmatory screen): -1.2
- CONFIRMATORY SCREEN Efficacy (%) ([3]; confirmatory screen): -62%
- Efficacy (%) [3, 6]: -57%
- Curve Class [3, 9]: -1.2
- IC50 [3, 7]: 25.1 µM
- 384-well SCREEN Efficacy (%) [4]: 72%
- 384-well SCREEN Confirm? [4]: YES
- IC50 [4]: 12.6 µM
